According to the NIST ThermoML archive (doi:10.1021/acs.jced.7b00802):
Numbers after ± are expanded uncertainties. Values belong to the compound of their own block, whether it stands above or below them.

Conditions: Liquid, Ebulliometric method (Recirculating still)

vapor or sublimation pressure (357.75 K): 101.3 ± 0.8 kPa
Structure (SMILES): COCCOC [1,2-dimethoxyethane]

vapor or sublimation pressure (341.88 K): 101.3 ± 0.8 kPa
Structure (SMILES): CCCCCC [hexane]

vapor or sublimation pressure (344.96 K): 101.3 ± 0.8 kPa
Structure (SMILES): CC1CCCC1 [methylcyclopentane]
